# In patent US20220280661A1, “GLUCOCORTICOID RECEPTOR RADIOLIGANDS AND METHODS FOR THEIR PREPARATION AND USE” (The Regents of the University of California, priority 2019, published 2022):
# Target: T1, GR (Mus musculus, UniProt P06537)
# T1 construct: from tissue; host or cells: tissues of C57BL6/J mice (intact or adrenalectomized), in vivo
# T1 sequence (P06537 1-792): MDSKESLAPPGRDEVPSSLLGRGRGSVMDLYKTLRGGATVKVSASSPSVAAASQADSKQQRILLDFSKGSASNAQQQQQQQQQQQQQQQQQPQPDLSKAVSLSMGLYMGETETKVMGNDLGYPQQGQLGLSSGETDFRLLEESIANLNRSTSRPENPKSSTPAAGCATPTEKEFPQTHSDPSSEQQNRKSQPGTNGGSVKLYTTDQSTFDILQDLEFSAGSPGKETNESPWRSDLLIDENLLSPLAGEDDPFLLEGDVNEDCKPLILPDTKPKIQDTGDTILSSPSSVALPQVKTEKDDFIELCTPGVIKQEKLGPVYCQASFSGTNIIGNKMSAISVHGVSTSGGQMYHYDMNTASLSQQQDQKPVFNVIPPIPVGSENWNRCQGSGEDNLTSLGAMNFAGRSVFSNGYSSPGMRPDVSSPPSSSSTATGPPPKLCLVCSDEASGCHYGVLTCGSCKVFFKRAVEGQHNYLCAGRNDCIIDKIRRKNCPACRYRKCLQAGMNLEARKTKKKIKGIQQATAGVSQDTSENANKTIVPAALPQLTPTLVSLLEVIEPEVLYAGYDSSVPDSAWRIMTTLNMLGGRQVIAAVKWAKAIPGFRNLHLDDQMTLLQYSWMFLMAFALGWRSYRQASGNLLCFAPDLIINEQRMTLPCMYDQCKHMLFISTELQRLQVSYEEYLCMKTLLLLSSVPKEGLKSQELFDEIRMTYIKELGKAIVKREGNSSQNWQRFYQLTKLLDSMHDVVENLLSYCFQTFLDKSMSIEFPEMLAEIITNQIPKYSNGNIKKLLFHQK
# Assay: Radiotracer biodistribution in intact or adrenalectomized mice
# Assay type: in vivo
# Settings: 20 min post injection
# Experimental: All animal experiments were conducted under the approval from Institutional Animal Care and Use Committee (IACUC) at UCSF. Male nu nu or C57BL6/J mice (4-6 weeks) purchased from Charles River. All the mice were well-housed in the USCF with free access to food and water. […] The mice were treated once daily for three days. At day 3, the mice received the radiotracer after the final gavage. Adrenalectomized mice were purchased from Charles River, and provided drinking water supplemented with NaCl (aq) per instructions.
# For a broader survey of radiotracer biodistribution post mortem, mice were euthanized after radiotracer injection with CO2(g) asphyxiation and dissected at dedicated time points post injection. The blood and tissues were removed, washed, dried and weighed. The activity of each tissue was measured with a gamma counter. All data was decay corrected. PRISM software was used to express a percentage (% ID/g) of the injected dose per gram of tissue. […] Table 2 provides a tabular representation of the biodistribution data collected 30, 60, 90 minutes after injection of [18F]-YJH08 in C57B16/J mice. The data are represented as mean standard deviation of the % ID/g.
# To understand if corticosteroid depletion elevated radiotracer uptake in tissues, the biodistribution of [18F]-YJH08 was compared in intact and adrenalectomized (adx) mice. The radiotracer uptake was uniformly higher in the tissues of adx mice compared to intact mice (FIG. 4C and Table 4). Overall, the extent of GR specific binding in tissues observed with [18F]-YJH08 is remarkable considering the previously reported biodistribution data for radiotracers targeting GR, including non-steroidal agonists. See, Wuest, et al. Bioorganic & medicinal chemistry letters 2007, 17 (14), 4035-9.
# The P value indicates the result of an unpaired, two-tailed Student's t test between the two arms (n=4/group).
# Animal Studies. All animal experiments were performed under the approval of the Institutional Animal Care and Use Committee (IACUC) at UCSF. C57BL6/J mice (4-6 weeks) were purchased from Charles River. All the mice were housed in a dedicated vivarium with free access to food and water. […] Adrenalectomized mice were purchased from Charles River and provided drinking water supplemented with NaCl (aq) per instructions until the time of the tracer biodistribution study.
# Biodistribution Studies. Mice were euthanized after radiotracer (7.4-18.5 MBq in 100-150 μL) injection with CO2 (g) asphyxiation and dissected at dedicated time points post injection. The blood and tissues were collected, washed, dried, and weighed. The activity of each tissue was measured with a gamma counter. All data was decay corrected. PRISM software was used to express a percentage (% ID/g) of the injected dose per gram of tissue.
# The data were collected in intact male C57B16/J mice at 20 min post injection.
# Significant reductions in (±)-^11C-YJH08 tissue uptake were observed by treating mice with Dex-CD at 10 mg/kg via intraperitoneal injection 1 hour before the radiotracer injection (FIG. 7A). […] Specific binding in vivo was further studied by investigating relative tissue uptake in intact versus adrenalectomized mice (adrenalectomy depletes serum corticosteroids and elevates GR expression in tissues). […] Table 8 summarizes the biodistribution data collected 20 minutes after injection of (±)-^11C-YJH08 in intact or adrenalectomized (ADREX) mice. The P value indicates the result of an unpaired, two-tailed Student's t test between the two arms (n=4/group).
# [1] = intact C57B16/J mice, listed as (±)-^18F-YJH08
SMILES,"radiotracer uptake, Blood (adrenalectomized mice) [% ID/g]","radiotracer uptake, Bone (adrenalectomized mice) [% ID/g]","radiotracer uptake, Brain (adrenalectomized mice) [% ID/g]","radiotracer uptake, Heart (adrenalectomized mice) [% ID/g]","radiotracer uptake, Kidney (adrenalectomized mice) [% ID/g]","radiotracer uptake, Liver (adrenalectomized mice) [% ID/g]","radiotracer uptake, Muscle (adrenalectomized mice) [% ID/g]","radiotracer uptake, Spleen (adrenalectomized mice) [% ID/g]","radiotracer uptake, Supraspinal BAT (adrenalectomized mice) [% ID/g]","radiotracer uptake, Adrenal Gland (intact C57B16/J mice) [% ID/g]","radiotracer uptake, Blood (intact C57B16/J mice) [% ID/g]","radiotracer uptake, Bone (intact C57B16/J mice) [% ID/g]","radiotracer uptake, Brain (intact C57B16/J mice) [% ID/g]","radiotracer uptake, Heart (intact C57B16/J mice) [% ID/g]","radiotracer uptake, Kidney (intact C57B16/J mice) [% ID/g]","radiotracer uptake, Liver (intact C57B16/J mice) [% ID/g]","radiotracer uptake, Muscle (intact C57B16/J mice) [% ID/g]","radiotracer uptake, Spleen (intact C57B16/J mice) [% ID/g]","radiotracer uptake, Supraspinal BAT (brown fat depot) (intact C57B16/J mice) [% ID/g]",further results
"COc1cccc2c1-c1ccc3c(c1C(Cc1ccc([18F])cc1)O2)C(C)=CC(C)(C)N3 (racemic) [[18F]-YJH08, [^18F]-5-(4-fluorobenzyl)-10-methoxy-2,2,4-trimethyl-2,5-dihydro-1H-chromeno[3,4-f]quinoline]",2.67 ± 0.1,1.45 ± 0.2,2.42 ± 0.1,4.75 ± 1.0,6.91 ± 0.3,13.28 ± 1.43,2.03 ± 0.2,3.25 ± 0.05,15.56 ± 3.8,10.82 ± 5.9,2.01 ± 0.4,1.39 ± 02,1.96 ± 0.09,3.92 ± 0.5,5.79 ± 1.0,10.68 ± 1.1,1.53 ± 0.1,2.67 ± −0.5,9.01 ± 2.0,"radiotracer uptake, Large intestine (adrenalectomized mice): 1.34 ± 0.7 % ID/g; radiotracer uptake, Lung (adrenalectomized mice): 4.35 ± 1.1 % ID/g; radiotracer uptake, Pancreas (adrenalectomized mice): 5.25 ± 0.4 % ID/g; radiotracer uptake, Small intestine (adrenalectomized mice): 27.83 ± 2.89 % ID/g; radiotracer uptake, Stomach (adrenalectomized mice): 3.23 ± 3.57 % ID/g; radiotracer uptake, Lung (intact C57B16/J mice): 3.89 ± 0.7 % ID/g; radiotracer uptake, Pancreas (intact C57B16/J mice): 4.40 ± 0.2 % ID/g; radiotracer uptake, Small intestine (intact C57B16/J mice): 21.22 ± 4.1 % ID/g; radiotracer uptake, Stomach (intact C57B16/J mice): 3.38 ± 2.8 % ID/g; radiotracer uptake, Adrenal Gland [1]: 12.19 ± 6.46 % ID/g; radiotracer uptake, Blood [1]: 2.22 ± 0.14 % ID/g; radiotracer uptake, Bone [1]: 1.3 ± 0.23 % ID/g; radiotracer uptake, Brain [1]: 1.93 ± 0.07 % ID/g; radiotracer uptake, Heart [1]: 4.15 ± 0.31 % ID/g; radiotracer uptake, Kidney [1]: 5.79 ± 1.07 % ID/g; radiotracer uptake, Liver [1]: 11.08 ± 0.92 % ID/g; radiotracer uptake, Muscle [1]: 1.53 ± 0.12 % ID/g; radiotracer uptake, Spleen [1]: 2.46 ± 0.53 % ID/g; radiotracer uptake, Supraspinal BAT (brown fat depot) [1]: 9.01 ± 2.07 % ID/g"
CC1=CC(C)(C)Nc2ccc3c(c21)C(Cc1ccc(F)cc1)Oc1cccc(O[11CH3])c1-3 (racemic) [(±)-^11C-YJH08],2.79 ± 0.54,2.03 ± 0.4,2.28 ± 0.46,5.63 ± 0.94,6.88 ± 1.52,15.21 ± 3.39,2.32 ± 0.5,2.88 ± 0.68,12.01 ± 3.54,13.88 ± 7.15,2.25 ± 0.21,1.19 ± 0.13,1.81 ± 0.17,4.47 ± 0.43,5.82 ± 0.28,12.19 ± 1.22,1.53 ± 0.13,2.22 ± 0.33,9.8 ± 2.83,
